Holding throughout (type): biochemical
One test has as its target T1, PDGFRB (Homo sapiens, UniProt P09619).
T1 construct: purchased Millipore
The test can be described thus: Z'-LYTE in vitro enzyme activity assay, PDGFRB. To be noted: 100 μM ATP, 60 minutes, room temperature; read-out: IC50 detected by Z'-LYTE, PDGFRB. Here is the method: (§1) The enzyme activity was measured by Z′-LYTE™ Detection Kinase Assay. The IC50 value of the compounds was used as an index to evaluate the inhibitory effect of the compounds on VEGFR2, FGFR1 and PDGFRB.
(§2) Recombinant human VEGFR2 and FGFR1 proteases were purchased from Life technology, PDGFRB Protease was purchased from Millipore.
(§3) Z-LYTE™ Kit Tyr1 and Tyr4 were purchased from Life technology. Multi-microplate reader, Envision (PerkinElmer) read board was used.
(§4) The test compounds were diluted 3 times with a concentration gradient, the final concentration was from 10 μM to 0.17 nM with a total of 11 concentrations, and each concentration had two parallel holes; the content of DMSO in the assay was 1%.
40 nM PDGFRB protein kinase, 2 μM Tyr4 peptide, 100 μM ATP, 50 mM HEPES (pH 7.5), 10 mM MgCl2, 1 mM EGTA, 0.01% BRIJ-35, 2 mM MnCl2, 1 mM DTT. The detector plate was Black Proxiplate 384-Plus plate (PerkinElmer), the reaction was performed at room temperature for 60 minutes, and the reaction system was 10 μl.
(§5) The reaction was stopped by adding 5 μl of DV reagent B (1:128) to the kinase reaction solution and incubated at 23° C. for 60 minutes. The Envision instrument was used to read the plate.
(§6) The data was converted to phosphorylation rate and inhibition rate and the 4 parameter curve fitting (Model 205 in XLFIT5, iDBS) was used to get IC50 data of the compounds.

In a further test the target is T2, VEGFR2 (Homo sapiens, UniProt P35968).
T2 construct: purchased Life technology
T2 sequence (P35968 20-1356): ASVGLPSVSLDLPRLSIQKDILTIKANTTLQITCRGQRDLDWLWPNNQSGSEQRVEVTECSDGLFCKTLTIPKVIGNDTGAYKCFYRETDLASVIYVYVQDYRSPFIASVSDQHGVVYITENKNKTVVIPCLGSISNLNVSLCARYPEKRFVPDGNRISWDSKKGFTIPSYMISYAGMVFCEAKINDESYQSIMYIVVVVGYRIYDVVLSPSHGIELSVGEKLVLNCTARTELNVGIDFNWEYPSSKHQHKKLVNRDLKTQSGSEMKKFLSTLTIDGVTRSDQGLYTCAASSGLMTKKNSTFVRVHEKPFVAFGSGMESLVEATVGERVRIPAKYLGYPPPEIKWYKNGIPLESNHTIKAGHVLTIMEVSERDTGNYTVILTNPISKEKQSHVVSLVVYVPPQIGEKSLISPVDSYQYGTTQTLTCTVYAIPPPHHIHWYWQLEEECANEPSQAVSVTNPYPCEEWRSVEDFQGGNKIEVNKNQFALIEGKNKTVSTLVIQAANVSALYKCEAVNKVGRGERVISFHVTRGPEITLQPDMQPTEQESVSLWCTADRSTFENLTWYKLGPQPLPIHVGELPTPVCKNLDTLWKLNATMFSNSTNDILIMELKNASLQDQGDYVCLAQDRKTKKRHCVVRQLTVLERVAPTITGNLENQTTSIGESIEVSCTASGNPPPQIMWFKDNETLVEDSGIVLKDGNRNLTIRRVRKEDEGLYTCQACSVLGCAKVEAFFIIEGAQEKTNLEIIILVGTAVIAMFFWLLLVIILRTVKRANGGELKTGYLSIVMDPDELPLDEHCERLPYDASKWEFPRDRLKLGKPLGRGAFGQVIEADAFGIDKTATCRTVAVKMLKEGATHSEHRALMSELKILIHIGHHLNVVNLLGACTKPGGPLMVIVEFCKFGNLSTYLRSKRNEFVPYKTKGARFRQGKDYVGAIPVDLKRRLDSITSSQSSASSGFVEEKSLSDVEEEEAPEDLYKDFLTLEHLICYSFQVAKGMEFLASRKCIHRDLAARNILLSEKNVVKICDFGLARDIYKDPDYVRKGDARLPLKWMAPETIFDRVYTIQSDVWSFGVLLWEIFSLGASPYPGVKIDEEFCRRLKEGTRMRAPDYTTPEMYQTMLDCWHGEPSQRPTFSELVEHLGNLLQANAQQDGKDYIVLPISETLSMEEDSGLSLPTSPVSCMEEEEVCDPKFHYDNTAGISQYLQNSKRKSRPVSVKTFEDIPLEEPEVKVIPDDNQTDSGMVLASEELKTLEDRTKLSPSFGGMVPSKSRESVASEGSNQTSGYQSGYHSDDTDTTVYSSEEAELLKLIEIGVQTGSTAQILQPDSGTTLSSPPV
The test can be described thus: Z'-LYTE in vitro enzyme activity assay, VEGFR2. To be noted: 100 μM ATP, 60 minutes, room temperature; read-out: IC50 detected by Z'-LYTE, VEGFR2. The procedure:
as §1, §2, §3, §4
3 nM VEGFR2 protein kinase, 2 μM Tyr1 peptide, 100 μM ATP, 50 mM HEPES (pH 7.5), 10 mM MgCl2, 1 mM EGTA, 0.01% BRIJ-35. The detector plate was Black Proxiplate 384-Plus plate (PerkinElmer), the reaction was performed at room temperature for 60 minutes, and the reaction system was 10 μl.
as §5, §6

The target in another test is T3, FGFR1 (Homo sapiens, UniProt P11362).
T3 construct: purchased Life technology
T3 sequence (P11362 22-822): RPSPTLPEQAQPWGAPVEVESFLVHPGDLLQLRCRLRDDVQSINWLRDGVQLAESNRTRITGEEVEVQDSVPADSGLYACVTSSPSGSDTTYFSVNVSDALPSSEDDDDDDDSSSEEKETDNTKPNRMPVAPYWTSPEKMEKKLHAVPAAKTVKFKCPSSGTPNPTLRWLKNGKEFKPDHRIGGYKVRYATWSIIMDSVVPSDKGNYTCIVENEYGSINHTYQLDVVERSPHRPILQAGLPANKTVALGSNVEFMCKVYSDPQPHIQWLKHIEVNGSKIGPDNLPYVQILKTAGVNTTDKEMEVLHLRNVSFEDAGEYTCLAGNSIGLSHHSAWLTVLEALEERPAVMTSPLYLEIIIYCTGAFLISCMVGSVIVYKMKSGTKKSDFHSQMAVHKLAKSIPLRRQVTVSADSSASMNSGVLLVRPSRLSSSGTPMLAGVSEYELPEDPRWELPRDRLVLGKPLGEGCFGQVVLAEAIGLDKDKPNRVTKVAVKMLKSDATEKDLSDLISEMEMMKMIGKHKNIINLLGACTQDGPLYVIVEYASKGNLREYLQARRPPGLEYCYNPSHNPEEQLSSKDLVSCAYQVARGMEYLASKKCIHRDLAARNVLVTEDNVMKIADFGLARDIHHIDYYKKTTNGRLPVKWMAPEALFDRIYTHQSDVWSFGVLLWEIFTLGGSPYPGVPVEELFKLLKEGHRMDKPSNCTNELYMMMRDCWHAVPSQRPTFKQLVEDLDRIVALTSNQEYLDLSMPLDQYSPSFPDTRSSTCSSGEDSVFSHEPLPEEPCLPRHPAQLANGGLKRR
Kind of test: Z'-LYTE in vitro enzyme activity assay, FGFR1. Particulars: 25 μM ATP, 60 minutes, room temperature; read-out: IC50 detected by Z'-LYTE, FGFR1. The procedure: as §1, §2, §3, §4
1 nM FGFR1 protein kinase, 2 μM Tyr4 peptide, 25 μM ATP, 50 mM HEPES (pH 7.5), 10 mM MgCl2, 1 mM EGTA, 0.01% BRIJ-35, 2 mM MnCl2, 1 mM DTT. The detector plate was Black Proxiplate 384-Plus plate (PerkinElmer), the reaction was performed at room temperature for 60 minutes, and the reaction system was 10 μl.
as §5, §6

Some results are limits rather than exact numbers.

Broadly, the IC50 is the concentration at which inhibition is half-maximal.

T1 sequence (P09619 33-1106): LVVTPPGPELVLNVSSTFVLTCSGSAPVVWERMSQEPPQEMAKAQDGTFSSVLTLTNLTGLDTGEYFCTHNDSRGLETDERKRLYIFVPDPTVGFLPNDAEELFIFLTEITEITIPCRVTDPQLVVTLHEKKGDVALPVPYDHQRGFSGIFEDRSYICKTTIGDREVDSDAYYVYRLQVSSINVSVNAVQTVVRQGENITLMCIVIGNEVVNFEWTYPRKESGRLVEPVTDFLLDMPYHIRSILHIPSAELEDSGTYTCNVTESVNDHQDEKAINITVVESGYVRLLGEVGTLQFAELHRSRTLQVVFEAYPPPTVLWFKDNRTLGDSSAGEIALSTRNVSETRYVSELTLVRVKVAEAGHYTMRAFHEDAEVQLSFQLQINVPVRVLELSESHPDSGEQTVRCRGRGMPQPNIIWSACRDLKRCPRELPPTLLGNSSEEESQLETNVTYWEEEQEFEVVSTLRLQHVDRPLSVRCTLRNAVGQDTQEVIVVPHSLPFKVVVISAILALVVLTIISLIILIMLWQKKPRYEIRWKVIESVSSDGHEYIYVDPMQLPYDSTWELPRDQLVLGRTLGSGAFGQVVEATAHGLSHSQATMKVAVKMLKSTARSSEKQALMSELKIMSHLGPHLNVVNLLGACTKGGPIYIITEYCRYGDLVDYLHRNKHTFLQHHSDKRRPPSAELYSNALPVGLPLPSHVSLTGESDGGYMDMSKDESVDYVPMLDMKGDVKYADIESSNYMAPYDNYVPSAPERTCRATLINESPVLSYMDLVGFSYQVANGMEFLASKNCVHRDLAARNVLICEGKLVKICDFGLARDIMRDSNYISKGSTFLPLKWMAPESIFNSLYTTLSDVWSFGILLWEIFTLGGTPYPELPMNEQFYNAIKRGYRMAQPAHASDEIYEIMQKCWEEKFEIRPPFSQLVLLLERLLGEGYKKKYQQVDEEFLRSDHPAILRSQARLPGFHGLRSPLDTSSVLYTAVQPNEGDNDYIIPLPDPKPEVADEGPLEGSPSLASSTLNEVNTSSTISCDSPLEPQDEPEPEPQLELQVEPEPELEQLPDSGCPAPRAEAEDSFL

Consider `COc1cc2ncc(Cl)c(Oc3ccc(NC(=S)N4CCCC4)c(Cl)c3)c2cc1C(N)=O` [Example 88], for which the IC50 on PDGFRB, on VEGFR2 and on FGFR1 was 200 to 1000 nM in each case.

`COc1ccc2c(Oc3ccc(NC(=S)N4CC(F)(F)C4)c(Cl)c3)ccnc2c1` [Example 171]: the IC50 on PDGFRB, on VEGFR2 and at FGFR1 was 200 to 1000 nM throughout.

Consider `COc1cc2nccc(Oc3ccc(NC(=S)NCc4ccc(F)cc4)c(Cl)c3)c2cc1C(N)=O` [Example 17], for which the IC50 at PDGFRB lay in the range of 50 to 200 nM; on VEGFR2, 200 to 1000 nM; on FGFR1 it was 200 to 1000 nM.

Take `COc1cc2nccc(Oc3ccc4nc(NCC(F)F)sc4c3)c2cc1C(N)=O` [Example 157]: the IC50 on PDGFRB, on VEGFR2 and on FGFR1 was 200 to 1000 nM throughout.

On to `COc1cc2nccc(Oc3ccc(NC(=S)NC(C)C)c(Cl)c3)c2cc1C(N)=O` [Example 52], for which the 50% inhibitory concentration (IC50) at PDGFRB was 50 to 200 nM; at VEGFR2 it was below 50 nM; on FGFR1, 200 to 1000 nM.

Regarding `Cc1nc(-c2ccc3c(Oc4ccc(NC(=O)NC5CC5)c(Cl)c4F)ccnc3c2)cn1C` [Example 229], the IC50 at PDGFRB, on VEGFR2 and on FGFR1 was below 50 nM in each case.

Take `COc1cc2nccc(Oc3ccc(NC(=S)N4CC(F)(F)C4)c(Cl)c3)c2cc1C(N)=O` [Example 35]: the IC50 is 50 to 200 nM on PDGFRB, below 50 nM on VEGFR2 and 50 to 200 nM at FGFR1.

As to `COc1cc2nccc(Oc3ccc(N4C(=O)CNC4=S)c(Cl)c3)c2cc1C(N)=O` [Example 166], the figures for the IC50 on PDGFRB, at VEGFR2 and on FGFR1 were 50 to 200 nM, below 50 nM and 200 to 1000 nM, respectively.

`COc1cc2nccc(Oc3ccc(NC(=S)Nc4cccnc4)c(Cl)c3)c2cc1C(N)=O` [Example 10]: the values for the IC50 on PDGFRB, on VEGFR2 and on FGFR1 were 50 to 200 nM, 50 to 200 nM and 200 to 1000 nM, respectively.

On to `COc1cc2nccc(OC3CC(NC(=O)NC4CC4)C3)c2cc1C(N)=O` (centres unmarked) [Example 129], for which, at VEGFR2, the concentration for half-maximal inhibition (IC50) was 200 to 1000 nM.

As to `COc1cc2nccc(Oc3ccc(NC(=S)NCCN4CCOCC4)c(Cl)c3)c2cc1C(N)=O` [Example 19], the IC50 on PDGFRB is below 50 nM; on VEGFR2, 200 to 1000 nM; on FGFR1, 200 to 1000 nM.

As to `COc1cc2nccc(Oc3ccc4c(NC(=S)NC5CC5)nn(C)c4c3)c2cc1C(N)=O` [Example 193], the results for the IC50 at PDGFRB, at VEGFR2 and at FGFR1 were 50 to 200 nM, 200 to 1000 nM and 200 to 1000 nM, respectively.

`COc1cc2nccc(Oc3ccc(Nc4c(NCc5cccnc5)c(=O)c4=O)c(Cl)c3)c2cc1C(N)=O` [Example 149]: the IC50 at PDGFRB, on VEGFR2 and at FGFR1 was 200 to 1000 nM in each case.

On to `COc1cc2nccc(Oc3cc(Cl)c4c(C(=O)N5CCCC5)coc4c3)c2cc1C(N)=O` [Example 194], for which the IC50 on PDGFRB, on VEGFR2 and at FGFR1 was 200 to 1000 nM throughout.

For the molecule `COc1cc2nccc(Oc3cc(F)c(NC(=S)N4CC(F)(F)C4)c(F)c3)c2cc1C(N)=O` [Example 90], the 50% inhibitory concentration (IC50) on PDGFRB is 200 to 1000 nM; on VEGFR2 it was 200 to 1000 nM; on FGFR1 it was 50 to 200 nM.

For the molecule `COc1cc2nccc(Oc3ccc(NC(=S)N4CC(O)C4)c(Cl)c3)c2cc1C(N)=O` [Example 69], the values for the IC50 at PDGFRB, at VEGFR2 and at FGFR1 were 50 to 200 nM, 50 to 200 nM and 200 to 1000 nM, respectively.

For the molecule `COc1cc2nccc(Oc3ccc(CP(=O)(O)NC4CC4)c(Cl)c3)c2cc1C(N)=O` [Example 133], the half-maximal inhibitory concentration (IC50) on VEGFR2 was in the range of 200 to 1000 nM.

In the case of `COc1cc2nccc(Oc3ccc(NC(=S)NC4CCOC4=O)c(Cl)c3)c2cc1C(N)=O` (centres unmarked) [Example 93], the concentration for half-maximal inhibition (IC50) on PDGFRB, at VEGFR2 and on FGFR1 was 200 to 1000 nM each time.

For the molecule `COc1cc2nccc(Oc3ccc(NC(=S)Nc4cccc(C(F)(F)F)c4)c(Cl)c3)c2cc1C(N)=O` [Example 7], the IC50 is 200 to 1000 nM on PDGFRB, 50 to 200 nM on VEGFR2 and 200 to 1000 nM on FGFR1.

For `COC[C@@H]1CCCN1NC(=S)Nc1ccc(Oc2ccnc3cc(OC)c(C(N)=O)cc23)c(F)c1Cl` [Example 105], the IC50 at PDGFRB, at VEGFR2 and at FGFR1 was 200 to 1000 nM throughout.

`COc1cc2nccc(Oc3ccc4c(C(=O)N5CCCC5)c[nH]c4c3)c2cc1C(N)=O` [Example 188]: the IC50 on PDGFRB, at VEGFR2 and at FGFR1 was 200 to 1000 nM in each case.

Take `COc1cc2nccc(Oc3cc(Cl)c4c(C(=O)NC5CC5)coc4c3)c2cc1C(N)=O` [Example 196]: the IC50 at PDGFRB, on VEGFR2 and at FGFR1 was 200 to 1000 nM each time.

`COc1cc2nccc(Oc3ccc4oc(C(=O)N5CCCC5)cc4c3)c2cc1C(N)=O` [Example 192]: the half-inhibitory concentration (IC50) at VEGFR2 lay in the range of 200 to 1000 nM.

As to `COc1cc2nccc(Oc3ccc(NC(=S)NC4(C(F)(F)F)CC4)c(Cl)c3)c2cc1C(N)=O` [Example 76], the IC50 at PDGFRB, on VEGFR2 and on FGFR1 was 200 to 1000 nM each time.

As for `COc1cc2nccc(Oc3ccc4c(C(=O)N5CC[C@@H](O)C5)coc4c3)c2cc1C(N)=O` [Example 201], the half-inhibitory concentration (IC50) at PDGFRB, on VEGFR2 and on FGFR1 was 200 to 1000 nM in each case.

For the molecule `COc1cc2nccc(OCC3CC(NC(=O)NC4CC4)C3)c2cc1C(N)=O` (centres unmarked) [Example 128], the concentration for half-maximal inhibition (IC50) on VEGFR2 was 200 to 1000 nM.

As for `Cc1c(OCC(C)O)cn2ncnc(Oc3ccc(NC(=S)NC4CC4)c(Cl)c3)c12` (centres unmarked) [Example 25], the IC50 on PDGFRB, at VEGFR2 and on FGFR1 was 200 to 1000 nM each time.

In the case of `CCN(CC)CCCNC(=O)c1cc2c(Oc3ccc(NC(=S)NC4CC4)c(Cl)c3)ccnc2cc1OC` [Example 40], the values for the half-inhibitory concentration (IC50) on PDGFRB, on VEGFR2 and at FGFR1 were 50 to 200 nM, 50 to 200 nM and 200 to 1000 nM, respectively.

For `COc1cc2nccc(Oc3ccc(NC(=S)NC4CCNC4=O)c(Cl)c3)c2cc1C(N)=O` (centres unmarked) [Example 94], the IC50 on PDGFRB, on VEGFR2 and at FGFR1 was 200 to 1000 nM each time.

As to `COc1cc2nccc(Oc3ccc(Nc4c(NC5CCC5)c(=O)c4=O)c(Cl)c3)c2cc1C(N)=O` [Example 145], the half-maximal inhibitory concentration (IC50) on PDGFRB was below 50 nM; on VEGFR2, 200 to 1000 nM; on FGFR1 it was 200 to 1000 nM.

Regarding `COc1cc2nccc(Oc3ccc(NC(=S)N4CC(C)(O)C4)c(Cl)c3)c2cc1C(N)=O` [Example 85], the IC50 on PDGFRB, at VEGFR2 and on FGFR1 was 200 to 1000 nM throughout.

Turning to `COC(=O)c1cc2c(Oc3ccc(NC(=S)N4CC(F)(F)C4)c(Cl)c3)ccnc2cc1OC` [Example 178], the concentration for half-maximal inhibition (IC50) on PDGFRB, on VEGFR2 and at FGFR1 was 200 to 1000 nM throughout.

Take `COc1cc2nccc(Oc3ccc(NC(N)=S)c(Cl)c3)c2cc1C(N)=O` [Example 57]: the half-inhibitory concentration (IC50) is 50 to 200 nM at PDGFRB, below 50 nM at VEGFR2 and 200 to 1000 nM on FGFR1.

For `Cn1cncc1-c1ccc2c(Oc3ccc(NC(=S)NC4CC4)c(Cl)c3)ccnc2c1` [Example 213], the half-maximal inhibitory concentration (IC50) was 50 to 200 nM at PDGFRB, below 50 nM at VEGFR2 and 50 to 200 nM on FGFR1.

On to `O=C1NCOc2cc3nccc(Oc4ccc(NC(=S)NC5CC5)c(Cl)c4)c3cc21` [Example 45], for which the IC50 on PDGFRB, on VEGFR2 and on FGFR1 was 200 to 1000 nM throughout.

Regarding `COc1cc2nccc(Oc3ccc(N/C(=C/[N+](=O)[O-])NC4CC4)c(Cl)c3)c2cc1C(N)=O` [Example 134], the IC50 at VEGFR2 is 200 to 1000 nM.

As to `COc1cc2nccc(Oc3ccc(Nc4nc(=O)cc(C)[nH]4)c(Cl)c3)c2cc1C(N)=O` [Example 135], on VEGFR2, the half-maximal inhibitory concentration (IC50) is 200 to 1000 nM.

In the case of `NC(=O)c1ccn2ncc(Oc3ccc(NC(=O)NC4CC4)c(Cl)c3)c2c1` [Example 125], on VEGFR2, the concentration for half-maximal inhibition (IC50) is 200 to 1000 nM.

`COc1cc2nccc(Oc3ccc4nc(Nc5ccc(Cl)c(F)c5)sc4c3)c2cc1C(N)=O` [Example 159]: the concentration for half-maximal inhibition (IC50) at VEGFR2 lay within 200 to 1000 nM.

`Cc1c(OC[C@@H](C)O)cn2ncnc(Oc3ccc(NC(=O)NC4CC4)c(Cl)c3)c12` [Example 126]: on VEGFR2, the concentration for half-maximal inhibition (IC50) is below 50 nM.

As to `CCOP(=O)(Cc1ccc(Oc2ccnc3cc(OC)c(C(N)=O)cc23)cc1Cl)NC1CC1` (centres unmarked) [Example 132], the concentration for half-maximal inhibition (IC50) at VEGFR2 was 200 to 1000 nM.

For the molecule `COc1cc2nccc(Oc3ccc(-c4c[nH]c(C(C)C)n4)c(Cl)c3)c2cc1C(N)=O` [Example 179], the half-inhibitory concentration (IC50) at VEGFR2 is 200 to 1000 nM.

(Values after patent US10654808B2, “Tyrosine kinase inhibitor and pharmaceutical composition comprising same” (GUANGDONG RAYNOVENT BIOTECH CO., LTD., priority 2015, dated 2020).)
